Test results from the supplement of paper PMC4862054.

Experiments:
Conditions in all cases: incubation time: 72 h
[1] = system: Hs578T; assay: normalised response (% of control), CellTiter-Glo; higher = more viable cells (100 = DMSO, 0 = benzethonium chloride kill control)
Outline: (§1)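 For each plate, 0.1 % DMSO was set to 100 and a positive kill control to 0. Breast cancer cell lines (20 µl suspension) were seeded into 384-well plates already holding compound at 5 concentrations in 10-fold steps over a 10,000-fold range chosen per compound, and incubated for 72 h. CellTox Green fluorescence at 485/520 nm was read before CellTiter-Glo luminescence, which followed 10 min at room temperature. Each value is the normalised signal at one concentration.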

[2] = system: MDA-MB-453; assay: as above
Outline: as §1

[3] = system: BT-474; assay: as above
Outline: as §1

[4] = system: CAL-85-1; assay: as above
Outline: as §1

[5] = system: BT-549; assay: as above
Outline: as §1

[6] = system: CAL-148; assay: as above
Outline: as §1

[7] = system: MDA-MB-468; assay: as above
Outline: as §1

[8] = system: MDA-MB-436; assay: as above
Outline: as §1

[9] = system: HCC1599; assay: as above
Outline: as §1

[10] = system: CAL-120; assay: as above
Outline: as §1

[11] = system: CAL-51; assay: as above
Outline: as §1

[12] = system: MFM-223; assay: as above
Outline: as §1

[13] = system: MDA-MB-231; assay: as above
Outline: as §1

[14] = system: DU-4475; assay: as above
Outline: as §1

[15] = system: HDQ-P1; assay: as above
Outline: as §1

[16] = system: HCC1937; assay: as above
Outline: as §1

[17] = system: SK-BR-3; assay: as above
Outline: as §1

[18] = system: MCF-10A; assay: as above
Outline: as §1

[19] = system: HCC1143; assay: as above
Outline: as §1

[20] = system: Hs578T; assay: normalised response (% of control), CellTox Green; higher = less cell death (100 = DMSO, 0 = benzethonium chloride kill control)
Outline: as §1

[21] = system: MDA-MB-453; assay: as above
Outline: as §1

[22] = system: BT-474; assay: as above
Outline: as §1

[23] = system: CAL-85-1; assay: as above
Outline: as §1

[24] = system: BT-549; assay: as above
Outline: as §1

[25] = system: CAL-148; assay: as above
Outline: as §1

[26] = system: MDA-MB-468; assay: as above
Outline: as §1

[27] = system: MDA-MB-436; assay: as above
Outline: as §1

[28] = system: HCC1599; assay: as above
Outline: as §1

[29] = system: CAL-120; assay: as above
Outline: as §1

[30] = system: CAL-51; assay: as above
Outline: as §1

[31] = system: MFM-223; assay: as above
Outline: as §1

[32] = system: MDA-MB-231; assay: as above
Outline: as §1

[33] = system: DU-4475; assay: as above
Outline: as §1

[34] = system: HDQ-P1; assay: as above
Outline: as §1

[35] = system: HCC1937; assay: as above
Outline: as §1

[36] = system: MCF-10A; assay: as above
Outline: as §1

[37] = system: HCC1143; assay: as above
Outline: as §1

Structure (SMILES) | normalised response [1] | normalised response [2] | normalised response [3] | normalised response [4] | normalised response [5] | normalised response [6] | normalised response [7] | normalised response [8] | normalised response [9] | normalised response [10] | normalised response [11] | normalised response [12] | normalised response [13] | normalised response [14] | normalised response [15] | normalised response [16] | normalised response [17] | normalised response [18] | normalised response [19] | normalised response [20] | normalised response [21] | normalised response [22] | normalised response [23] | normalised response [24] | normalised response [25] | normalised response [26] | normalised response [27] | normalised response [28] | normalised response [29] | normalised response [30] | normalised response [31] | normalised response [32] | normalised response [33] | normalised response [34] | normalised response [35] | normalised response [36] | normalised response [37]
COc1cc2ncnc(Nc3ccc(F)c(Cl)c3)c2cc1NC(=O)/C=C/CN1CCCCC1 [Dacomitinib] (100 nM) | 101% | 72.7% | 94% | 61% | 95.4% | 82% | 87.1% | 92.1% | 110% | 99.7% | 112% | 105% | 97.5% | 96.2% | 68.6% | 93.3% | 36.1% | 38.9% | 94.9% | 101% | 87.4% | 70.4% | 80.4% | 98.9% | 97.8% | 74.8% | 96.8% | 99.1% | 96.7% | 78.7% | 100% | 109% | 99.5% | 89.4% | 92.7% | 94.3% | 102%
CC(C)Cn1cnc2c(N)nc3ccccc3c21 [Imiquimod] (250 nM) | 98.7% | 107% | 110% | 97.5% | 105% | 98% | 97% | 101% | 104% | 95% | 99% | 101% | 105% | 103% | 97.7% | 93% | 105% | 104% | 101% | 54.6% | 103% | 88.2% | 89.3% | 98.3% | 76.8% | 119% | 107% | 97.7% | 99.5% | 94.4% | 92.9% | 102% | 101% | 104% | 112% | 109% | 99.4%
